Results from the NIST ThermoML archive (doi:10.1016/j.jct.2016.03.026).
Numbers after ± are expanded uncertainties.

Assay: xn = mol fraction of the nth substance listed
Conditions: 293.15 K, Fluid (supercritical or subcritical phases), Vibrating tube method, x1 = 0.97

O=C=O [carbon dioxide] + CO
Conditions | mass density [kg/m3]
8600 kPa | 847.4 ± 0.81
8625 kPa | 847.69 ± 0.81
8650 kPa | 848.04 ± 0.81
8675 kPa | 848.37 ± 0.81
8700 kPa | 848.68 ± 0.81
8725 kPa | 849.03 ± 0.81
8750 kPa | 849.37 ± 0.81
8775 kPa | 849.67 ± 0.81
8800 kPa | 849.99 ± 0.81
8825 kPa | 850.29 ± 0.81
8850 kPa | 850.6 ± 0.81
8875 kPa | 850.92 ± 0.81
8900 kPa | 851.22 ± 0.81
8925 kPa | 851.5 ± 0.81
8950 kPa | 851.81 ± 0.81
8975 kPa | 852.08 ± 0.81
9000 kPa | 852.41 ± 0.81
9025 kPa | 852.71 ± 0.81
9050 kPa | 852.98 ± 0.81
9075 kPa | 853.28 ± 0.81
9100 kPa | 853.57 ± 0.81
9125 kPa | 853.85 ± 0.81
9150 kPa | 854.08 ± 0.81
9175 kPa | 854.24 ± 0.81
9200 kPa | 854.32 ± 0.81
9225 kPa | 854.58 ± 0.81
9250 kPa | 854.9 ± 0.81
9275 kPa | 855.22 ± 0.81
9300 kPa | 855.55 ± 0.81
9325 kPa | 855.89 ± 0.81
9350 kPa | 856.22 ± 0.81
9375 kPa | 856.46 ± 0.81
9400 kPa | 856.82 ± 0.81
9425 kPa | 857.09 ± 0.81
9450 kPa | 857.44 ± 0.81
9475 kPa | 857.69 ± 0.81
9500 kPa | 858.02 ± 0.81
9525 kPa | 858.28 ± 0.81
9550 kPa | 858.59 ± 0.81
9575 kPa | 858.84 ± 0.81
9600 kPa | 859.17 ± 0.81
9625 kPa | 859.48 ± 0.81
9650 kPa | 859.74 ± 0.81
9675 kPa | 860.01 ± 0.81
9700 kPa | 860.28 ± 0.81
9725 kPa | 860.54 ± 0.81
9750 kPa | 860.76 ± 0.81
9775 kPa | 860.99 ± 0.81
9800 kPa | 861.24 ± 0.81
9825 kPa | 861.54 ± 0.81
9850 kPa | 861.78 ± 0.81
9875 kPa | 862 ± 0.81
9900 kPa | 862.27 ± 0.81
9925 kPa | 862.54 ± 0.81
9950 kPa | 862.76 ± 0.81
9975 kPa | 863.01 ± 0.81
10000 kPa | 863.3 ± 0.81
10025 kPa | 863.5 ± 0.81
10050 kPa | 863.76 ± 0.81
10075 kPa | 864 ± 0.81
10100 kPa | 864.22 ± 0.81
10125 kPa | 864.49 ± 0.81
10150 kPa | 864.74 ± 0.81
10175 kPa | 865.06 ± 0.81
10200 kPa | 865.34 ± 0.81
10225 kPa | 865.63 ± 0.81
10250 kPa | 865.87 ± 0.81
10275 kPa | 866.12 ± 0.81
10300 kPa | 866.45 ± 0.81
10325 kPa | 866.67 ± 0.81
10350 kPa | 866.94 ± 0.81
10375 kPa | 867.18 ± 0.81
10400 kPa | 867.43 ± 0.81
10425 kPa | 867.68 ± 0.81
10450 kPa | 867.99 ± 0.81
10475 kPa | 868.24 ± 0.81
10500 kPa | 868.43 ± 0.81
10525 kPa | 868.74 ± 0.81
10550 kPa | 868.99 ± 0.81
10575 kPa | 869.23 ± 0.81
10600 kPa | 869.48 ± 0.81
10625 kPa | 869.76 ± 0.81
10650 kPa | 869.97 ± 0.81
10675 kPa | 870.3 ± 0.81
10700 kPa | 870.54 ± 0.81
10725 kPa | 870.79 ± 0.81
10750 kPa | 871.03 ± 0.81
10775 kPa | 871.28 ± 0.81
10800 kPa | 871.52 ± 0.81
10825 kPa | 871.77 ± 0.81
10850 kPa | 872.01 ± 0.81
10875 kPa | 872.27 ± 0.81
10900 kPa | 872.51 ± 0.81
10925 kPa | 872.75 ± 0.81
10950 kPa | 873 ± 0.81
10975 kPa | 873.24 ± 0.81
11000 kPa | 873.49 ± 0.81
11025 kPa | 873.73 ± 0.81
11050 kPa | 873.98 ± 0.81
11075 kPa | 874.22 ± 0.81
11100 kPa | 874.47 ± 0.81
11125 kPa | 874.72 ± 0.81
11150 kPa | 874.96 ± 0.81
11175 kPa | 875.21 ± 0.81
11200 kPa | 875.45 ± 0.81
11225 kPa | 875.7 ± 0.81
11250 kPa | 875.94 ± 0.81
11275 kPa | 876.2 ± 0.81
11300 kPa | 876.43 ± 0.81
11325 kPa | 876.68 ± 0.81
11350 kPa | 876.93 ± 0.81
11375 kPa | 877.16 ± 0.81
11400 kPa | 877.38 ± 0.81
11425 kPa | 877.58 ± 0.81
11450 kPa | 877.85 ± 0.81
11475 kPa | 878.07 ± 0.81
11500 kPa | 878.33 ± 0.81
11525 kPa | 878.56 ± 0.81
11550 kPa | 878.81 ± 0.81
11575 kPa | 879 ± 0.81
11600 kPa | 879.3 ± 0.81
11625 kPa | 879.46 ± 0.81
11650 kPa | 879.71 ± 0.81
11675 kPa | 879.95 ± 0.81
11700 kPa | 880.2 ± 0.81
11725 kPa | 880.38 ± 0.81
11750 kPa | 880.63 ± 0.81
11775 kPa | 880.86 ± 0.81
11800 kPa | 881.1 ± 0.81
11825 kPa | 881.34 ± 0.81
11850 kPa | 881.54 ± 0.81
11875 kPa | 881.77 ± 0.81
11900 kPa | 882 ± 0.81
11925 kPa | 882.25 ± 0.81
11950 kPa | 882.46 ± 0.81
11975 kPa | 882.66 ± 0.81
12000 kPa | 882.9 ± 0.81
12025 kPa | 883.12 ± 0.81
12050 kPa | 883.38 ± 0.81
12075 kPa | 883.57 ± 0.81
12100 kPa | 883.79 ± 0.81
12125 kPa | 884.05 ± 0.81
12150 kPa | 884.26 ± 0.81
12175 kPa | 884.46 ± 0.81
12200 kPa | 884.7 ± 0.81
12225 kPa | 884.95 ± 0.81
12250 kPa | 885.18 ± 0.81
12275 kPa | 885.36 ± 0.81
12300 kPa | 885.6 ± 0.81
12325 kPa | 885.85 ± 0.81
12350 kPa | 886.09 ± 0.81
12375 kPa | 886.26 ± 0.81
12400 kPa | 886.49 ± 0.81
12425 kPa | 886.67 ± 0.81
12450 kPa | 886.91 ± 0.81
12475 kPa | 887.16 ± 0.81
12500 kPa | 887.33 ± 0.81
12525 kPa | 887.57 ± 0.81
12550 kPa | 887.8 ± 0.81
12575 kPa | 887.98 ± 0.81
12600 kPa | 888.22 ± 0.81
12625 kPa | 888.41 ± 0.81
12650 kPa | 888.63 ± 0.81
12675 kPa | 888.88 ± 0.81
12700 kPa | 889.11 ± 0.81
12725 kPa | 889.29 ± 0.81
12750 kPa | 889.53 ± 0.81
12775 kPa | 889.77 ± 0.81
12800 kPa | 889.94 ± 0.81
12825 kPa | 890.19 ± 0.81
12850 kPa | 890.37 ± 0.81
12875 kPa | 890.6 ± 0.81
12900 kPa | 890.84 ± 0.81
12925 kPa | 891.01 ± 0.81
12950 kPa | 891.25 ± 0.81
12975 kPa | 891.46 ± 0.81
13000 kPa | 891.66 ± 0.81
13025 kPa | 891.9 ± 0.81
13050 kPa | 892.08 ± 0.81
13075 kPa | 892.32 ± 0.81
13100 kPa | 892.5 ± 0.81
13125 kPa | 892.74 ± 0.81
13150 kPa | 892.96 ± 0.81
13175 kPa | 893.13 ± 0.81
13200 kPa | 893.3 ± 0.81
13225 kPa | 893.53 ± 0.81
13250 kPa | 893.74 ± 0.81
13275 kPa | 893.95 ± 0.81
13300 kPa | 894.19 ± 0.81
13325 kPa | 894.36 ± 0.81
13350 kPa | 894.53 ± 0.81
13375 kPa | 894.75 ± 0.81
13400 kPa | 894.97 ± 0.81
13425 kPa | 895.18 ± 0.81
13450 kPa | 895.34 ± 0.81
13475 kPa | 895.52 ± 0.81
13500 kPa | 895.75 ± 0.81
13525 kPa | 895.96 ± 0.81
13550 kPa | 896.13 ± 0.81
13575 kPa | 896.33 ± 0.81
13600 kPa | 896.51 ± 0.81
13625 kPa | 896.67 ± 0.81
13650 kPa | 896.86 ± 0.81
13675 kPa | 897.09 ± 0.81
13700 kPa | 897.29 ± 0.81
13725 kPa | 897.47 ± 0.81
13750 kPa | 897.68 ± 0.81
13775 kPa | 897.85 ± 0.81
13800 kPa | 898.05 ± 0.81
13825 kPa | 898.26 ± 0.81
13850 kPa | 898.41 ± 0.81
13875 kPa | 898.62 ± 0.81
13900 kPa | 898.8 ± 0.81
13925 kPa | 898.97 ± 0.81
13950 kPa | 899.2 ± 0.81
13975 kPa | 899.38 ± 0.81
14000 kPa | 899.55 ± 0.81
14025 kPa | 899.76 ± 0.81
14050 kPa | 899.94 ± 0.81
14075 kPa | 900.17 ± 0.81
14100 kPa | 900.34 ± 0.81
14125 kPa | 900.51 ± 0.81
14150 kPa | 900.7 ± 0.81
14175 kPa | 900.95 ± 0.81
14200 kPa | 901.13 ± 0.81
14225 kPa | 901.31 ± 0.81
14250 kPa | 901.48 ± 0.81
14275 kPa | 901.66 ± 0.81
14300 kPa | 901.83 ± 0.81
14325 kPa | 902.05 ± 0.81
14350 kPa | 902.18 ± 0.81
14375 kPa | 902.38 ± 0.81
14400 kPa | 902.56 ± 0.81
14425 kPa | 902.77 ± 0.81
14450 kPa | 902.92 ± 0.81
14475 kPa | 903.13 ± 0.81
14500 kPa | 903.28 ± 0.81
14525 kPa | 903.44 ± 0.81
14550 kPa | 903.67 ± 0.81
14575 kPa | 903.82 ± 0.81
14600 kPa | 904.05 ± 0.81
14625 kPa | 904.2 ± 0.81
14650 kPa | 904.42 ± 0.81
14675 kPa | 904.58 ± 0.81
